According to PMC10080127, “Metabolic stability and metabolite profiling of emerging synthetic cathinones” (Frontiers in Pharmacology, 2023):

How the values were obtained:
[1] = Metabolic stability (substrate depletion) in human liver microsome Phase I incubations; conditions: for intrinsic clearance (CLint): HLM incubations, scaled with 45 mg microsomal protein/g liver and 26 g liver/kg b.w.; for half-life at 10 μM: human, human liver microsomes
[2] = Phase II (glucuronidation) metabolite generation in alamethicin-induced HLM with NADPH and UDPGA; format: in vitro ADME, human; conditions: 2 h, LC-HRMS/MS
Experimental: For the generation of Phase II metabolites, alamethicine-induced HLM ([Fisher et al., 2000]) were used in the presence of Phase I and glucuronidation co-factor. Briefly, HLM (1 mg/mL) were preincubated for 15 min, in ice, with alamethicin (25 μg/mL) in 50 mM ABIC buffer at pH 7.4, for a total incubation volume of 200 μL. Following the addition of MgCl2 (2 mM; 1 μL) and selected cathinone (10 μM final concentration), the resulting solution was incubated for 5 min at 37°. NADPH (5 mM) and UDPGA (5 mM) were then added to start the Phase I and II reactions. Incubations were run in duplicate.
An in-house accurate mass library was first built, considering the metabolic pathways already known for other structurally similar cathinones, and a targeted screening was then carried out by performing extracted ion chromatograms (EIC), with a mass window of ±5 ppm, for the protonated/deprotonated molecules of the expected metabolites in the full scan spectra. Isotope cluster analysis was also used to identify chlorinated metabolites. All spectra corresponding to metabolites were then manually checked. The mass deviation from the accurate mass of the identified cathinone metabolites remained below 5 ppm for the precursor and below 10 ppm for product ions. Candidates present in control incubations and/or without MS/MS data were excluded. […] Metabolites were ranked based on their relative abundance over incubation time (Figures 2–9). The relative abundance was calculated by the ratio of the relative area of each metabolite and the sum of the relative areas obtained for all metabolites and for the respective parent cathinone.

[3] = parameters: method as in Wagmann et al., 2020; conditions: ref Wagmann et al., 2020; cited from earlier work
[4] = pH 7.4, half-life (t1/2), HLM 1 mg/mL, cathinone 10 μM, NADPH, 37°C, pH 7.4
[5] = pH 7.4, clearance classification based on t1/2, HLM, scoring proposed by McNaney et al. (2008)

SMILES	intrinsic clearance (CLint) [1] [mLmin^−1 kg^−1]	half-life at 10 μM [1, 4] [min]	Phase II (glucuronide) metabolites identified [2]	half-life (t1/2) reported [3] [min]	half-life at 10 μM [1, 5] [min]
CC(C)NC(C)C(=O)c1cccc(Cl)c1 (stereo not shown) [3-CIC, 3′-chloro-N-isopropylcathinone]	34	24			
CNC(C)C(=O)c1cccc(Cl)c1 (stereo not shown) [3-CMC, 3′-chloromethcathinone]	15	54	No Phase II metabolites were identified		
CCNC(C)C(=O)c1ccc(Cl)cc1 (stereo not shown) [4-CEC, 4-chloroethcathinone]				105	
CC(C)NC(C)C(=O)c1ccc(Cl)cc1 (stereo not shown) [4-CIC, 4′-chloro-N-isopropylcathinone]	22	36			
CNC(C)C(=O)c1ccc(Cl)cc1 (stereo not shown) [4-CMC, 4′-chloromethcathinone]	10	78	no Phase II metabolite was identified		> 60
CCC(C(=O)c1ccc(C)cc1)N(C)C (stereo not shown) [4-MDMB, 4′-methyl-N,N-dimethylbufedrone]	54	15	No Phase II metabolite was detected		< 20
CCCC(C(=O)c1ccc(C)cc1)N(C)C (stereo not shown) [4-MDMP, 4′-methyl-N,N-dimethylpentedrone]	18	46	No Phase II metabolites were identified		
CCCC(NCC)C(=O)c1ccc(C)cc1 (stereo not shown) [4-MEAP, 4′-methyl-N-ethylnorpentedrone]	33	24	no glucuronide metabolite was identified		
CCNC(CC)C(=O)c1ccc(C)cc1 (stereo not shown) [4-MNEB, 4′-methyl-N-ethylbufedrone]	16	55	No Phase II metabolites were identified		
